Where a SMILES comes first, the peptide text is derived from it. [ ]: non-standard residue; d: D form. Dab = NCC[C@H](N)C(=O)O; Dap = NC[C@H](N)C(=O)O
Experiments:
[1] = Circular dichroism, helical structure; assay type: physicochemical; conditions: for [θ]222, aqueous pH 7 / [θ]222, 50% TFE: CD, 222 nm; for [θ]222, aqueous pH 7 / [θ]222, 50% TFE / % helix, aqueous pH 7: 25 °C; for [θ]222, aqueous pH 7: 100 mM KCl, 50 mM Na2HPO4/NaH2PO4, pH 7.0; for [θ]222, 50% TFE: pH 7.0 buffer containing 50% TFE; for % helix induced: increase in molar ellipticity (as a percentage) in the presence of 50% TFE; for % helix, aqueous pH 7: relative to the molar ellipticity of the peptide in 50% TFE
[2] = RP-HPLC temperature profiling, self-association; assay type: physicochemical; conditions: temperature at which maximum retention time is observed over 5–77 °C, Zorbax 300 SB-C8, 0.5% acetonitrile/min, 0.30 mL/min, TFA pH 2
[3] = test system: human red blood cells; experiment: Hemolytic activity; assay type: cell-based; conditions: for HC50: pH 7.4

Structure (SMILES) | [θ]222, aqueous pH 7 [1] | [θ]222, 50% TFE [1] | % helix induced [1] | % helix, aqueous pH 7 [1] | Tp [2] | HC50 fold improvement [3] | HC50 [3]
CC(=O)N[C@H](CCCCN)C(=O)N[C@H](CC(C)C)C(=O)N[C@@H](CCN)C(=O)N[C@H](CO)C(=O)N[C@H](CC(C)C)C(=O)N[C@H](CC(C)C)C(=O)N[C@@H](CCN)C(=O)N[C@@H](C(=O)N[C@H](CC(C)C)C(=O)N[C@H](CO)C(=O)N[C@@H](CCN)C(=O)N[C@H](C)C(=O)N[C@H](C)C(=O)N[C@H](C)C(=O)N[C@H](C)C(=O)N[C@H](C)C(=O)N[C@H](CC(C)C)C(=O)N[C@@H](CCN)C(=O)N[C@@H](C(=O)N[C@H](CC(C)C)C(=O)N[C@H](CC(C)C)C(=O)N[C@@H](CCN)C(=O)N[C@H](C)C(=O)N[C@H](CC(C)C)C(=O)N[C@H](CO)C(=O)N[C@@H](CCN)C(N)=O)[C@H](C)O)[C@H](C)O [D86(K13A/K16A)-(Lys^1-6 Dab-1)] (Ac-[dK][dL][Dab][dS][dL][dL][Dab][dT][dL][dS][Dab][dA][dA][dA][dA][dA][dL][Dab][dT][dL][dL][Dab][dA][dL][dS][Dab]-NH2) | 2308 mdeg cm^2/(dmol × res) | 18731 mdeg cm^2/(dmol × res) | 88% | 12% | 31.0 °C | – | –
CC(=O)N[C@H](CCCCN)C(=O)N[C@H](CC(C)C)C(=O)N[C@@H](CCN)C(=O)N[C@H](CO)C(=O)N[C@H](CC(C)C)C(=O)N[C@H](CC(C)C)C(=O)N[C@@H](CCN)C(=O)N[C@@H](C(=O)N[C@H](CC(C)C)C(=O)N[C@H](CO)C(=O)N[C@@H](CCN)C(=O)N[C@H](C)C(=O)N[C@H](CCCCN)C(=O)N[C@H](C)C(=O)N[C@H](C)C(=O)N[C@H](CCCCN)C(=O)N[C@H](CC(C)C)C(=O)N[C@@H](CCN)C(=O)N[C@@H](C(=O)N[C@H](CC(C)C)C(=O)N[C@H](CC(C)C)C(=O)N[C@@H](CCN)C(=O)N[C@H](C)C(=O)N[C@H](CC(C)C)C(=O)N[C@H](CO)C(=O)N[C@@H](CCN)C(N)=O)[C@H](C)O)[C@H](C)O [D86(Lys^1-6 Dab-1)] (Ac-[dK][dL][Dab][dS][dL][dL][Dab][dT][dL][dS][Dab][dA][dK][dA][dA][dK][dL][Dab][dT][dL][dL][Dab][dA][dL][dS][Dab]-NH2) | 1769 mdeg cm^2/(dmol × res) | 27923 mdeg cm^2/(dmol × res) | 94% | 6% | 5.0 °C | >186 | >2000 µg/mL
CC(=O)N[C@H](CCCCN)C(=O)N[C@H](CC(C)C)C(=O)N[C@@H](CCN)C(=O)N[C@H](CO)C(=O)N[C@H](CC(C)C)C(=O)N[C@H](CC(C)C)C(=O)N[C@@H](CCN)C(=O)N[C@@H](C(=O)N[C@H](CC(C)C)C(=O)N[C@H](CO)C(=O)N[C@@H](CCN)C(=O)N[C@H](C)C(=O)N[C@H](CCCCN)C(=O)N[C@H](C)C(=O)N[C@H](C)C(=O)N[C@H](CCCCN)C(=O)N[C@H](CC(C)C)C(=O)N[C@@H](CCN)C(=O)N[C@@H](C(=O)N[C@H](CC(C)C)C(=O)N[C@H](CC(C)C)C(=O)N[C@@H](CCN)C(=O)N[C@H](C)C(=O)N[C@H](CC(C)C)C(=O)N[C@H](CO)C(=O)N[C@H](CO)C(N)=O)[C@H](C)O)[C@H](C)O [D102(Lys^1Ser^26-5 Dab-1)] (Ac-[dK][dL][Dab][dS][dL][dL][Dab][dT][dL][dS][Dab][dA][dK][dA][dA][dK][dL][Dab][dT][dL][dL][Dab][dA][dL][dS][dS]-NH2) | – | – | – | – | – | >177 | >2000 µg/mL
CC(=O)N[C@H](CCCCN)C(=O)N[C@H](CC(C)C)C(=O)N[C@@H](CN)C(=O)N[C@H](CO)C(=O)N[C@H](CC(C)C)C(=O)N[C@H](CC(C)C)C(=O)N[C@@H](CN)C(=O)N[C@@H](C(=O)N[C@H](CC(C)C)C(=O)N[C@H](CO)C(=O)N[C@@H](CN)C(=O)N[C@H](C)C(=O)N[C@H](C)C(=O)N[C@H](C)C(=O)N[C@H](C)C(=O)N[C@H](C)C(=O)N[C@H](CC(C)C)C(=O)N[C@@H](CN)C(=O)N[C@@H](C(=O)N[C@H](CC(C)C)C(=O)N[C@H](CC(C)C)C(=O)N[C@@H](CN)C(=O)N[C@H](C)C(=O)N[C@H](CC(C)C)C(=O)N[C@H](CO)C(=O)N[C@@H](CN)C(N)=O)[C@H](C)O)[C@H](C)O [D105(K13A/K16A)-(Lys^1-6 Dap-1)] (Ac-[dK][dL][Dap][dS][dL][dL][Dap][dT][dL][dS][Dap][dA][dA][dA][dA][dA][dL][Dap][dT][dL][dL][Dap][dA][dL][dS][Dap]-NH2) | 9577 mdeg cm^2/(dmol × res) | 18038 mdeg cm^2/(dmol × res) | 47% | 53% | 39.0 °C | – | –
CC(=O)N[C@H](CCCCN)C(=O)N[C@H](CC(C)C)C(=O)N[C@@H](CN)C(=O)N[C@H](CO)C(=O)N[C@H](CC(C)C)C(=O)N[C@H](CC(C)C)C(=O)N[C@@H](CN)C(=O)N[C@@H](C(=O)N[C@H](CC(C)C)C(=O)N[C@H](CO)C(=O)N[C@@H](CN)C(=O)N[C@H](C)C(=O)N[C@H](CCCCN)C(=O)N[C@H](C)C(=O)N[C@H](C)C(=O)N[C@H](CCCCN)C(=O)N[C@H](CC(C)C)C(=O)N[C@@H](CN)C(=O)N[C@@H](C(=O)N[C@H](CC(C)C)C(=O)N[C@H](CC(C)C)C(=O)N[C@@H](CN)C(=O)N[C@H](C)C(=O)N[C@H](CC(C)C)C(=O)N[C@H](CO)C(=O)N[C@@H](CN)C(N)=O)[C@H](C)O)[C@H](C)O [D105(Lys^1-6 Dap-1)] (Ac-[dK][dL][Dap][dS][dL][dL][Dap][dT][dL][dS][Dap][dA][dK][dA][dA][dK][dL][Dap][dT][dL][dL][Dap][dA][dL][dS][Dap]-NH2) | 5961 mdeg cm^2/(dmol × res) | 24192 mdeg cm^2/(dmol × res) | 75% | 25% | 16.9 °C | >287 | >3000 µg/mL

From article PMC6886721 (Journal of medicinal chemistry, 2019)
